Measured values published in ChEMBL document CHEMBL1135259, “Azapeptides as inhibitors of the hepatitis C virus NS3 serine protease” (Bioorg Med Chem Lett, 2002).

Legend:
Set-up in all cases: species or system Hepacivirus hominis
[1] = target: T1, NS3 (Hepatitis C virus, UniProt A3EZJ3); experiment: Binding affinity against Hepatitis C virus NS3 protease was calculated as Kcat
[2] = target: T1, NS3; experiment: Compound was evaluated for its binding affinity against NS3 protease
[3] = target: T1, NS3; experiment: Binding affinity against Hepatitis C virus NS3 protease

T1 sequence (A3EZJ3 whole entry): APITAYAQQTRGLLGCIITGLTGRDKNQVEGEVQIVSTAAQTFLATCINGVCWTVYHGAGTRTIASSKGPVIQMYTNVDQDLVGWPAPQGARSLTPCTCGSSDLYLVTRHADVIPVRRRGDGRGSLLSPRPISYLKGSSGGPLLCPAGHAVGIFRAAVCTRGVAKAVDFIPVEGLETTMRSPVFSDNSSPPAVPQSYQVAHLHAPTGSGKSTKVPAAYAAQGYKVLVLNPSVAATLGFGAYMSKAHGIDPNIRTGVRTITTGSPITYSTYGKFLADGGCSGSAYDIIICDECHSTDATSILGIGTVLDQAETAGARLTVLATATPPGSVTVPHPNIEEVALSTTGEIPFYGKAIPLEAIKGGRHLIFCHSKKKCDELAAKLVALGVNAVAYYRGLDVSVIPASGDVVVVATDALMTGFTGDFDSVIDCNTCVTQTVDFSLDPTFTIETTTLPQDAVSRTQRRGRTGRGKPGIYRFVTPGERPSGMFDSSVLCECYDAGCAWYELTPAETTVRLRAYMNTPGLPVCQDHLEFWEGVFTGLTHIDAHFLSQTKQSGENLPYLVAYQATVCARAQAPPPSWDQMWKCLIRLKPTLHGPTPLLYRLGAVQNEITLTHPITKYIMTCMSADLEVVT

CCCN(NC(=O)[C@H]1CCCN1C(=O)[C@@H](NC(=O)[C@@H](NC(=O)[C@H](CC(=O)O)NC(=O)[C@H](CCC(=O)O)NC(=O)[C@@H](NC(=O)[C@H](CC(=O)O)NC(C)=O)[C@@H](C)O)C(C)C)C(C)C)C(=O)Oc1ccc([N+](=O)[O-])cc1
Ki [1]: 0.5 min⁻¹ | Ki [2]: 3 µM | Ki [3]: 2 µM

CCCN(NC(=O)[C@H]1CCCN1C(=O)[C@@H](NC(=O)[C@@H](NC(=O)[C@H](CC(=O)O)NC(=O)[C@H](CCC(=O)O)NC(=O)[C@@H](NC(=O)[C@H](CC(=O)O)NC(C)=O)[C@@H](C)O)C(C)C)C(C)C)C(=O)CCl
Ki [3]: > 100 µM

CCCN(NC(=O)[C@H]1CCCN1C(=O)[C@@H](NC(=O)[C@@H](NC(=O)[C@H](CC(=O)O)NC(=O)[C@H](CCC(=O)O)NC(=O)[C@@H](NC(=O)[C@H](CC(=O)O)NC(C)=O)[C@@H](C)O)C(C)C)C(C)C)C(=O)N[C@@H](CO)C(=O)N[C@@H](CCSC)C(=O)N[C@@H](CO)C(=O)N[C@@H](Cc1ccc(O)cc1)C(=O)N[C@H](C(=O)N[C@@H](Cc1c[nH]c2ccccc12)C(=O)N[C@H](C(=O)NCC(=O)N[C@@H](CCCCN)C(=O)O)[C@@H](C)O)[C@@H](C)O
Ki [3]: 10 µM

CCCN(NC(=O)[C@H]1CCCN1C(=O)[C@@H](NC(=O)[C@@H](NC(=O)[C@H](CC(=O)O)NC(=O)[C@H](CCC(=O)O)NC(=O)[C@@H](NC(=O)[C@H](CC(=O)O)NC(C)=O)[C@@H](C)O)C(C)C)C(C)C)C(=O)c1cc(C(F)(F)F)cc(C(F)(F)F)c1
Ki [3]: > 100 µM

CCCN(NC(=O)[C@H]1CCCN1C(=O)[C@@H](NC(=O)[C@@H](NC(=O)[C@H](CC(=O)O)NC(=O)[C@H](CCC(=O)O)NC(=O)[C@@H](NC(=O)[C@H](CC(=O)O)NC(C)=O)[C@@H](C)O)C(C)C)C(C)C)C(=O)OC(C)(C)C(Cl)(Cl)Cl
Ki [3]: > 100 µM
